Results: patent publication US20240140951A1, “IMIDAZOPYRIDAZINE DERIVATIVES AS IL-17 MODULATORS” (UCB Biopharma SRL, priority 2020, published 2024)

The compounds below were run against T1, IL-17A (Homo sapiens, UniProt Q16552) (assay: Inhibition of IL-17A induced IL-6 release from dermal fibroblast cell line (HDF cell line assay)). Settings: HDF cells stimulated with IL-17A 50 pM + TNF-α 25 pM; IL-6 release measured by HTRF.
T1 sequence (Q16552 24-155): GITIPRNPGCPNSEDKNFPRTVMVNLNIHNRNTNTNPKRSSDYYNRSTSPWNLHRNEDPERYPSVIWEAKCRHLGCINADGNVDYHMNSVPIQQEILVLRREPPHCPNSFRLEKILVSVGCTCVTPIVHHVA
Format: cell-based
From the text: Inhibition of IL-17A Induced IL-6 Release from Dermal Fibroblast Cell Line
The purpose of this assay is to test the neutralising ability to IL-17 proteins, in a human primary cell system. Stimulation of normal human dermal fibroblasts (HDF) with IL-17 alone produces only a very weak signal but in combination with certain other cytokines, such as TNFα, a synergistic effect can be seen in the production of inflammatory cytokines, i.e. IL-6.
HDFs were stimulated with IL-17A (50 pM) in combination with TNF-α (25 pM). The resultant IL-6 response was then measured using a homogenous time-resolved FRET kit from Cisbio. The kit utilises two monoclonal antibodies, one labelled with Eu-Cryptate (Donor) and the second with d2 or XL665 (Acceptor). The intensity of the signal is proportional to the concentration of IL-6 present in the sample (Ratio is calculated by 665/620×104).
The ability of a compound to inhibit IL-17 induced IL-6 release from human dermal fibroblasts is measured in this assay.
HDF cells (Sigma #106-05n) were cultured in complete media (DMEM+10% FCS+2 mM L-glutamine) and maintained in a tissue culture flask using standard techniques. Cells were harvested from the tissue culture flask on the morning of the assay using TrypLE (Invitrogen #12605036). The TrypLE was neutralised using complete medium (45 mL) and the cells were centrifuged at 300×g for 3 minutes. The cells were re-suspended in complete media (5 mL) counted and adjusted to a concentration of 3.125×10^4 cells/mL before being added to the 384 well assay plate (Corning #3701) at 40 μL per well. The cells were left for a minimum of three hours, at 37° C./5% CO2, to adhere to the plate.
Compounds were serially diluted in DMSO before receiving an aqueous dilution into a 384 well dilution plate (Greiner #781281), where 5 μL from the titration plate was transferred to 45 μL of complete media and mixed to give a solution containing 10% DMSO.
Mixtures of TNFα and IL-17 cytokine were prepared in complete media to final concentrations of TNFα 25 pM/IL-17A 50 pM, then 30 μL of the solution was added to a 384 well reagent plate (Greiner #781281).
L from the aqueous dilution plate was transferred to the reagent plate containing 30 μL of the diluted cytokines, to give a 2.5% DMSO solution. The compounds were incubated with the cytokine mixtures for 5 h at 37° C. After the incubation, 10 μL was transferred to the assay plate, to give a 0.5% DMSO solution, then incubated for 18-20 h at 37° C./5% CO2.
From the Cisbio IL-6 FRET kit (Cisbio #62IL6PEB) europium cryptate and Alexa 665 were diluted in reconstitution buffer and mixed 1:1, as per kit insert. To a white low volume 384 well plate (Greiner #784075) were added FRET reagents (10 μL), then supernatant (10 μL) was transferred from the assay plate to Greiner reagent plate. The mixture was incubated at room temperature for 3 h with gentle shaking (<400 rpm) before being read on a Synergy Neo 2 plate reader (Excitation: 330 nm; Emission: […]).

IC50 [nM]	SMILES
31.6	Cc1nonc1C(=O)N[C@H](c1cn2ncc(C(CC(F)F)c3nnc4ccc(F)cn34)cc2n1)C1CCC(F)(F)CC1 (single isomer, unassigned) [Example 12]
25.1	Cc1nonc1C(=O)N[C@H](c1cn2ncc(C3CN(C4COC4)CC3C(=O)N3CC(F)(F)C(F)(F)C3)cc2n1)C1CCC(F)(F)CC1 (single isomer, unassigned) [Example 13]
20	Cc1nonc1C(=O)N[C@H](c1cn2ncc(C(CC(F)F)c3nnnn3CC(F)(F)F)cc2n1)C1CCC(F)(F)CC1 (single isomer, unassigned) [Example 15, N-[(S)-(4,4-Difluorocyclohexyl)(7-{(1S*)-3,3-difluoro-1-[1-(2,2,2-trifluoroethyl)tetrazol-5-yl]propyl}imidazo[1,2-b]pyridazin-2-yl)methyl]-4-methyl-1,2,5-oxadiazole-3-carboxamide]
25.1	Cc1nonc1C(=O)N[C@H](c1cn2ncc(C3CC(F)(F)CCN3C(=O)C34CC(F)(C3)C4)cc2n1)C1CCC(F)(F)CC1 (single isomer, unassigned) [Example 16]
39.8	Cc1nonc1C(=O)N[C@H](c1cn2ncc(C(CC(F)F)C(=O)NCC(F)(F)F)cc2n1)C1CCC(F)(F)CC1 (stereo partly drawn) [Example 1, N-[(S)-(4,4-Difluorocyclohexyl){7-[3,3-difluoro-1-(2,2,2-trifluoroethylcarbamoyl)-propyl]imidazo[1,2-b]pyridazin-2-yl}methyl]-4-methyl-1,2,5-oxadiazole-3-carboxamide]
10	CNC(=O)[C@H](NC(=O)C(CC(F)F)c1cnn2cc([C@@H](NC(=O)c3nonc3C)C3CCC(F)(F)CC3)nc2c1)C(C)C (stereo partly drawn) [Example 2, N-{(S)-(4,4-difluorocyclohexyl)[7-(3,3-difluoro-1-{[(1R)-2-methyl-1-(methylcarbamoyl)-propyl]carbamoyl}propyl)imidazo[1,2-b]pyridazin-2-yl]methyl}-4-methyl-1,2,5-oxadiazole-3-carboxamide]
20	CCc1nonc1C(=O)N[C@H](c1cn2ncc(C(CC(F)F)C(=O)NCC(F)(F)F)cc2n1)C1CCC(F)(F)CC1 (stereo partly drawn) [Example 5, N-[(S)-(4,4-Difluorocyclohexyl){7-[3,3-difluoro-1-(2,2,2-trifluoroethylcarbamoyl)-propyl]imidazo[1,2-b]pyridazin-2-yl}methyl]-4-ethyl-1,2,5-oxadiazole-3-carboxamide]
25.1	CC(C)n1nccc1C(=O)N[C@H](c1cn2ncc(C(CC(F)F)C(=O)NCC(F)(F)F)cc2n1)C1CCC(F)(F)CC1 (stereo partly drawn) [Example 7, N-[(S)-(4,4-Difluorocyclohexyl){7-[3,3-difluoro-1-(2,2,2-trifluoroethylcarbamoyl)-propyl]imidazo[1,2-b]pyridazin-2-yl}methyl]-2-isopropylpyrazole-3-carboxamide]
158	CC(C)n1ncnc1C(=O)N[C@H](c1cn2ncc(C(CC(F)F)C(=O)NCC(F)(F)F)cc2n1)C1CCC(F)(F)CC1 (stereo partly drawn) [Example 8, N-[(S)-(4,4-Difluorocyclohexyl){7-[3,3-difluoro-1-(2,2,2-trifluoroethylcarbamoyl)-propyl]imidazo[1,2-b]pyridazin-2-yl}methyl]-2-isopropyl-1,2,4-triazole-3-carboxamide]
63.1	Cc1nonc1C(=O)N[C@H](c1cn2ncc(C3(C(=O)NCC(F)(F)F)CCC(F)(F)CC3)cc2n1)C1CCC(F)(F)CC1 [Example 9, N-[(S)-(4,4-Difluorocyclohexyl){7-[4,4-difluoro-1-(2,2,2-trifluoroethylcarbamoyl)-cyclohexyl]imidazo[1,2-b]pyridazin-2-yl}methyl]-4-methyl-1,2,5-oxadiazole-3-carboxamide]
316	Cc1nonc1C(=O)NC(c1cn2ncc(C(CC(F)F)C(=O)NCC(F)(F)F)cc2n1)C(C1CC1)C1CC1 (stereo not shown) [Example 11, N-(2,2-Dicyclopropyl-1-{7-[3,3-difluoro-1-(2,2,2-trifluoroethylcarbamoyl)propyl]-imidazo[1,2-b]pyridazin-2-yl}ethyl)-4-methyl-1,2,5-oxadiazole-3-carboxamide]
63.1	Cc1nonc1C(=O)N[C@H](c1cn2ncc(C3(C(=O)NCC(C)(F)F)CCOCC3)cc2n1)C1CCC(F)(F)CC1 [Example 14, N-[(S)-(4,4-Difluorocyclohexyl){7-[4-(2,2-difluoropropylcarbamoyl)tetrahydropyran-4-yl]imidazo[1,2-b]pyridazin-2-yl}methyl]-4-methyl-1,2,5-oxadiazole-3-carboxamide]
6.31	CC(F)(F)CNC(=O)C1(c2cnn3cc([C@@H](NC(=O)c4nonc4C4CC4)C4CCC(F)(F)CC4)nc3c2)CCOCC1 [Example 17, 4-Cyclopropyl-N-[(S)-(4,4-difluorocyclohexyl){7-[4-(2,2-difluoropropylcarbamoyl)-tetrahydropyran-4-yl]imidazo[1,2-b]pyridazin-2-yl}methyl]-1,2,5-oxadiazole-3-carboxamide]
